How the values were obtained:
male ob/ob mice = test: Subchronic oral administration in male ob/ob mice (7, 15 and 28 day protocols), Method B15; assay type: in vivo, mouse
Source text: B15. Effects of Subchronic Administration of Compounds of the Invention in Male ob/ob Mice
The objective of this study is to determine the subchronic effects of test compounds on body weight change, food and water consumption, as well as glucose homeostasis and insulin levels in male ob/ob mice upon oral administration for up to 7 days. The male ob/ob mouse was selected as a type 2 diabetes (T2DM) and genetically defined obesity model which is sensitive to the effect of different insulin sensitizers in acute as well as in chronic settings.
A similar study in this model was conducted to determine the acute and subchronic effects of test compounds on body weight change, food and water consumption, glucose homeostasis, insulin and glucagon levels, as well as lipid profile and brain penetration upon oral administration to the male ob/ob mice for up to 28 days.
Mice were individually housed in rodent cages with soft wood bedding on the bottom and equipped with water bottles. All cages were clearly labeled with a cage card indicating study number, group, animal number and dose level. Each animal was uniquely identified by an animal number marked on their tail with indelible ink. The animal number was designated the day the animals arrive at the animal facility. The animal room environment was controlled (targeted ranges: temperature 22±2° C.; relative humidity 50±10%; light/dark cycle: 12 hours light, 12 hours dark, lights on from 06:00 AM to 06:00 PM). A regular rodent diet (Charles River 5075 rodent chow, Purina Mills, Canada) was provided to the animals ad libitum. Municipal tap water was provided to the animals ad libitum via water bottles. Fresh tap water was provided after water bottle weighing. An acclimation period of approximately 7 days for all groups was allowed between the receipt of animals and the start of treatment to accustom the […] to the laboratory environment. On experimental Day −7, animals were stratified according to body weight and glycemia into an appropriate number of groups of 5 or 10 animals and two groups of 5 animals.
Test compounds were administered, as a solution, orally, at the doses indicated. The dose volume will be 5 mL/kg/day. Groups were dosed once daily around 4:00 p.m. As positive controls, rosiglitazone (Avandia®), an approved anti-diabetic drug of the thiazolidinediones family (ppar gamma agonist) which has been specifically reported to normalize glycemia in the ob/ob mouse model (Liu et al., J. Med. Chem.; 46: 2093-2103, 2003) was used. The CB1 receptor antagonist rimonabant (Accomplia®) was reported to reduce body weight and food intake in different models of Type 2 diabetes and obesity and was also employed (Rasmussen and Huskinson Behavioral Pharmacol. 2008, 19, 735-742,; Bobo, G.; et al. Hepathology 2007, 46, 122-129; Di Marzo; et al., Nature 2001, 410, 822-825).
For, the study animals, the data collected from study Day −7 to Day 8 were reported. Body weights were recorded for all animals on Day −7 prior to initiation of dosing, at the time of group assignment and daily throughout the study period (Day 1-8). Food and water intake was Measured 4 hrs post-dosing, 2 hrs after the beginning of the dark cycle (around 8:00 p.m.) on Day 1 and 7 (Subset A) as well as on Day 2 and 8 (Subset B) and then daily in 24 h intervals from Day 3 through Day 8. On Day 1 (Subset A) and Day 2 (Subset B), blood was sampled from 3 animals/group from Groups 2 through 4 into EDTA coated tubes (K2-EDTA microtainer tubes, Becton Dickinson) from a tail vein (˜100 μL) 4 hrs post-dose for PK analysis. Blood was centrifuged at 4000 rpm for 10 min. at 4° C., and the resulting plasma transferred into non-coated tubes and stored at −80° C. until analysis. The same procedures were repeated on Day 7 (Subset A) and Day 8 (Subset B) 24 hrs post-dose. […]

Caco-2 cells = test: Caco-2 permeability, Method B7; assay type: in vitro ADME, human; details: for A to B Mean Papp / B to A Mean Papp: Caco-2, 10 μM, without P-gp inhibitor; for Efflux ratio Papp B2A/Papp A2B: Caco-2, without P-gp inhibitor
Source text: B7. Determination of Caco-2 Permeability
The Caco-2 cell line, derived from a human colorectal carcinoma, has become an established in vitro model for the prediction of drug absorption across the human intestine. (Sun, D.; Yu, L. X.; Hussain, M. A.; Wall, D. A.; Smith, R. L.; Amidon, G. L. Curr. Opin. Drug Discov. Devel. 2004, 7, 75-85; Bergstrom, C. A. Basic Clin. Pharmacol. Toxicol. 2005, 96, 156-61; Balimane, P. V.; Han, Y. H.; Chong, S. AAPS J. 2006, 8, E1-13; Shah, P.; Jogani, V.; Bagchi, T.; Misra, A. Biotechnol. Prog. 2006, 22, 186-198.) When cultured on semi-permeable membranes, Caco-2 cells differentiate into a highly functionalized epithelial barrier with remarkable morphological and biochemical similarity to the small intestinal columnar epithelium. Fully differentiated cell monolayers can be used to assess the membrane transport properties of novel compounds.
Assays to determine the permeability of compounds of the invention utilizing Caco-2 cells are commercially available, for example NoAb BioDiscoveries (Mississaugua, ON, Canada) and Absorption Systems (Exton, Pa., USA).
Permeability across the Caco-2 cell layer was determined by growing the cells on a membrane placed between two (donor and acceptor) chambers. Drug candidates are typically added to the apical (A) side of the cell layer and their appearance in the basolateral (B) side is measured over incubation time. Permeability in this direction represents intestinal absorption. Permeability may also be determined from the basolateral to the apical side of the Caco-2 cell. […]
Permeability (10 μM) for compounds of the invention in the apical to basolateral and basolateral to apical direction were tested in duplicate. Samples will be collected from the donor and acceptor chambers at the beginning (0 min) and following 60 min of incubation at 37° C. and stored frozen at −70° C. until bioanalysis. Samples for each test compound generated from the Caco-2 permeability assay were further analyzed by LC-MS-MS. The permeability of [^3H]-mannitol and [^3H]-propranolol were determined in parallel as controls.
The permeability coefficient (Papp) of each compound and radiolabeled standard was determined using the following equation: […]
where dQ/dT represents the permeability rate, Ci denotes the initial concentration in the donor compartment, and A represents the surface area of the filter. Ci is determined from the mean concentration of duplicate samples taken prior to addition to the donor compartment. Permeability rates were calculated by plotting the cumulative amount of compound measured in the acceptor compartment over time and determining the slope of the line by linear regression analysis. The duplicate and mean apical to basolateral and basolateral to apical Papp's were reported for each compound and standard. […]

[1] = vs vehicle control mice, FIG. 13

In the case of `CC(C)[C@@H]1NCCOc2ccccc2C#CCNC(=O)[C@@H](Cc2ccccc2)NC(=O)[C@H](C(C)O)N(C)C1=O` (stereo partly shown) [Compound 1712], the “acute cumulative food intake” value (male ob/ob mice; over a 2 hr period, fasted animals, vs vehicle control, FIG. 11) is reported as “significantly reduced”.
`CC(C)[C@@H]1NCC2CCc3cccc(c3O2)CCCNC(=O)[C@@H](Cc2ccccc2)NC(=O)[C@H](C(C)O)N(C)C1=O` (stereo partly shown) [Compound 1777] was tested, and the A to B Mean Papp (Caco-2 cells) was 0.274 ×10⁻⁶ cm/s, the B to A Mean Papp (Caco-2 cells) was 53.5 ×10⁻⁶ cm/s and the “Efflux ratio Papp B2A/Papp A2B” value (Caco-2 cells) was 195.
In the case of `CC(C)[C@@H]1NCCOc2ccccc2C2CCC(C2)NC(=O)[C@@H](Cc2c[nH]c3ccccc23)NC(=O)[C@H](C(C)O)N(C)C1=O` (stereo partly shown) [Compound 1843], the A to B Mean Papp (Caco-2 cells) is reported as 0.142 ×10⁻⁶ cm/s, the B to A Mean Papp (Caco-2 cells) is reported as 13.4 ×10⁻⁶ cm/s and the “Efflux ratio Papp B2A/Papp A2B” value (Caco-2 cells) is reported as 95.
For `CC(C)[C@@H]1NCCOc2ccccc2C2CCC(C2)NC(=O)[C@@H](Cc2ccccc2)NC(=O)[C@H](C(C)O)N(C)C1=O` (stereo partly shown) [Compound 1848], the “blood glucose levels during oral glucose tolerance test” value (male ob/ob mice; 75 mg/kg, vs vehicle control) was “significant decrease”, the “reduction in cumulative food intake” value (male ob/ob mice; po, 75 mg/kg, 336 h) was 11.9% and the insulin sensitivity (male ob/ob mice; treated ob/ob mice) was “improvement”. The “free fatty acids (FFAs)” value (male ob/ob mice; [1]) was “significantly reduced”, the glucagon (male ob/ob mice; [1]) was “significantly reduced” and the insulin (male ob/ob mice; [1]) was “significantly reduced”. The non-fasting glucose (male ob/ob mice; [1]) was “significantly reduced”, the “total cholesterol level significantly reduced” value (male ob/ob mice; [1]) was “not” and the “triglycerides level significantly reduced” value (male ob/ob mice; [1]) was “not”.

Source: patent US20110105389A1 (priority 2009, published 2011)
